Where “and” joins values, the source holds several entries; their conditions need not be identical. Identical values can stand only once. Entries after “also recorded” stand apart in the source; their conditions may differ.
How the values were obtained:
[1] = Prevention of clinical diabetes (glycosuria) in NOD mice; type: in vivo; details: observed to 35 weeks, incl. 15 weeks after cessation of treatment
Procedure: (§1) NOD mice were dosed with maltol to evaluate its effect on the pathogenesis of type I diabetes. Mice received 5 mg maltol/mouse every other day from age 2 weeks until they were 20 weeks old. Maltol extracted from ginseng as described in Example 2 was used for the first 10 weeks, then maltol purchased from Sigma Co., St. Louis, MO was used thereafter. The mice were kept until they were 35 weeks old. Urine glucose was measured at 3-day intervals from 10 to 35 weeks of age. Urinary glucose and ketone levels were determined using Diastix and Ketostix reagent slips (Miles, Ontario, Canada). Individual mice were classified as being diabetic on the basis of positive glycosuria^38. […] In contrast, 78% of age-matched control mice (22 mice) spontaneously developed autoimmune diabetes. At 35 weeks of age, fasting (8 hours of fasting) and non-fasting blood glucose levels were measured. Blood was obtained from the retro-orbital venous plexus of fasting and nonfasting NOD mice. Glucose levels were measured enzymatically by the glucose oxidase method with o-dianisidine dihydrochloride as the reactive dye ^39-41 . The mean nonfasting blood glucose level of 35 ICR mice (nondiabetic control mice; NOD mice were derived from ICR mice) was 149±27 mg/dl. Any non-fasting mouse with a blood glucose level greater than 230 mg/dl (3 SD above the mean) was scored as diabetic. The mean fasting blood glucose level of 38 ICR mice was 137±28 mg/dl. Any fasting mouse with a blood glucose level greater than 221 mg/dl (3 SD above the mean) was scored as diabetic.

[2] = Blood glucose levels in NOD mice (glucose oxidase method); type: in vivo; details: NOD mice
Procedure: as §1

pancreatic islets = test: Histologic changes of pancreatic islets (hematoxylin and eosin); type: in vivo, NOD mice; parameters: key to Diabetes: "+" indicates "yes"; "-" indicates "no"
Description: Maltol-treated and untreated NOD mice were sacrificed and 25% of each pancreas was fixed in 6% Formalin. Paraffin-embedded sections were stained with hematoxylin and eosin and examined under an Olympus light microscope ^49. To see whether there are any histological differences between the pancreatic islets of DPD-treated and untreated NOD mice, the pancreatic islets of 35 week old mice were examined with the light microscope after staining with hematoxylin and eosin. […] The rest of their islets were rated as having either severe (22%), moderate (27%), mild (25%) or no (6%) insulitis. […] In addition, there were histopathological changes in their pancreatic islets that were rated as moderate (22% of examined islets), mild (30%) or as having no insulitis (15%).

[3] = Pancreatic insulin content (immunoreactive insulin, radioimmunoassay) in NOD mice; type: in vivo; details: NOD mice
Procedure: Insulin was extracted from the pancreas of non-obese diabetic (NOD) mouse by known methods ^33,34. Briefly, deep frozen pancreatic tissue (50% of each pancreas) was placed into phosphate buffered saline (PBS) and then extraction solution A (380 ml absolute alcohol, 20 ml H2 O, 8 ml concentrated HCl and some drops of alcoholic phenol red) was added. This mixture was homogenized with polytron type PT 10-20-[…] in glass tubes (15×125 mm) for 30 seconds in position 5. The homogenized material in the tubes was incubated at 4° C. for 10 hours. At the end of the incubation period, the homogenized material was centrifuged at 800 g for 5 minutes for clarification. The supernatant was saved. The pellet was re-extracted with 1 ml of extraction solution B (356 ml absolute alcohol, 124 ml H2 O and 7.5 ml HCl). The pellet in extraction solution B was incubated for 4 hours at 4° C. and then homogenized with a polytron as described above. The homogenized material was centrifuged at 800 g for 5 minutes. The supernatant was pooled with the supernatant from the first extraction. The pooled supernatant was neutralized with concentrated NH40 H (about 10 μl ) until the phenol red turned to purple. The neutralized supernatant was precipitated at 4° C. and then centrifuged at 800 g for 5 min. The supernatant, which contains insulin, was used for the measurement of insulin by radioimmunoassay. The concentration of immunoreactive insulin (IRI) in the pancreas from DPD-treated and untreated NOD mice was measured by radioimmunoassay techniques ^42-44 using mouse insulin as a standard. Briefly, the extracted samples from NOD mice were mixed with […], and anti-insulin antibody. The mixed materials were incubated for 2 hours at room temperature. At the end of the incubation period, anti-guinea pig IgG raised in sheep was added and the mixture was incubated for 30 minutes at room temperature. At the end of the incubation, the samples were centrifuged at 1500 g for 10 minutes. The supernatant was completely removed. The radioactivity of the pellets was measured. The percent of activity was determined by the following formula: [formula] On the basis of % activity in standards, a standard curve was constructed. The concentration of each unknown sample from maltol-treated or untreated NOD pancreas was read on the basis of the standard curve. […] The maltol-treated mice have insulin levels that are similar to the non-diabetic, untreated animals. About 75% of the maltol-treated mice have insulin levels over 80 μg/g pancreas and about 25% have insulin levels between 55-75 μg/g pancreas.

[4] = individual DPD-treated non-diabetic NOD mice (animal 1-5), 35 weeks

## Cc1occc(=O)c1O [DPD, maltol]
[1]
  Prevention / recurrence of clinical diabetes (in words): no recurrence of the disease; also recorded: prevented clinical diabetes completely; also recorded: prevents the onset of clinical diabetes
[2]
  Hyperglycemia / clinical diabetes by blood glucose (in words): do not exhibit hyperglycemia; also recorded: prevents clinical diabetes
Pancreatic islets; Table 2, individual DPD-treated NOD mice
  Diabetes: -
Pancreatic islets; group of DPD-treated NOD mice
  Mild histopathological changes, share of examined islets: 30%
  Moderate histopathological changes, share of examined islets: 22%
  No insulitis, share of examined islets: 15%
Pancreatic islets; group of DPD-treated NOD mice, untreated diabetic 35%
  Severe insulitis, share of examined islets: about 19%
Pancreatic islets; group of DPD-treated NOD mice, untreated diabetic 64%
  Severe beta cell necrosis, share of examined islets: approximately 14%
Pancreatic islets; [4]
  Beta Cell Necrosis, islets affected / islets examined: 5/31 and 5/32 and 3/28 and 4/32
  Beta Cell Necrosis, percent of islets: 16% and 11% and 13%
  Intact Islet, islets / islets examined: 4/31 and 5/32 and 4/28
  Intact Islet, percent of islets: 19% and 15% and 14% and 13%
  Mild Insulitis, islets affected / islets examined: 9/31 and 8/32 and 11/28 and 10/31 and 9/32
  Mild Insulitis, percent of islets: 29% and 25% and 39% and 33% and 28%
  Moderate Insulitis, islets affected / islets examined: 7/31 and 8/32 and 5/28 and 6/31
  Moderate Insulitis, percent of islets: 23% and 25% and 18% and 19%
  Severe Insulitis, islets affected / islets examined: 6/31 and 6/32 and 5/28
  Severe Insulitis, percent of islets: 19% and 18%
[3]
  Pancreatic insulin / protection from beta cell destruction (in words): prevents depression of pancreatic insulin levels
